Experiment [1] concerns the target T1, JAK3 (Homo sapiens, UniProt P52333).
T1 sequence (P52333 1-1124): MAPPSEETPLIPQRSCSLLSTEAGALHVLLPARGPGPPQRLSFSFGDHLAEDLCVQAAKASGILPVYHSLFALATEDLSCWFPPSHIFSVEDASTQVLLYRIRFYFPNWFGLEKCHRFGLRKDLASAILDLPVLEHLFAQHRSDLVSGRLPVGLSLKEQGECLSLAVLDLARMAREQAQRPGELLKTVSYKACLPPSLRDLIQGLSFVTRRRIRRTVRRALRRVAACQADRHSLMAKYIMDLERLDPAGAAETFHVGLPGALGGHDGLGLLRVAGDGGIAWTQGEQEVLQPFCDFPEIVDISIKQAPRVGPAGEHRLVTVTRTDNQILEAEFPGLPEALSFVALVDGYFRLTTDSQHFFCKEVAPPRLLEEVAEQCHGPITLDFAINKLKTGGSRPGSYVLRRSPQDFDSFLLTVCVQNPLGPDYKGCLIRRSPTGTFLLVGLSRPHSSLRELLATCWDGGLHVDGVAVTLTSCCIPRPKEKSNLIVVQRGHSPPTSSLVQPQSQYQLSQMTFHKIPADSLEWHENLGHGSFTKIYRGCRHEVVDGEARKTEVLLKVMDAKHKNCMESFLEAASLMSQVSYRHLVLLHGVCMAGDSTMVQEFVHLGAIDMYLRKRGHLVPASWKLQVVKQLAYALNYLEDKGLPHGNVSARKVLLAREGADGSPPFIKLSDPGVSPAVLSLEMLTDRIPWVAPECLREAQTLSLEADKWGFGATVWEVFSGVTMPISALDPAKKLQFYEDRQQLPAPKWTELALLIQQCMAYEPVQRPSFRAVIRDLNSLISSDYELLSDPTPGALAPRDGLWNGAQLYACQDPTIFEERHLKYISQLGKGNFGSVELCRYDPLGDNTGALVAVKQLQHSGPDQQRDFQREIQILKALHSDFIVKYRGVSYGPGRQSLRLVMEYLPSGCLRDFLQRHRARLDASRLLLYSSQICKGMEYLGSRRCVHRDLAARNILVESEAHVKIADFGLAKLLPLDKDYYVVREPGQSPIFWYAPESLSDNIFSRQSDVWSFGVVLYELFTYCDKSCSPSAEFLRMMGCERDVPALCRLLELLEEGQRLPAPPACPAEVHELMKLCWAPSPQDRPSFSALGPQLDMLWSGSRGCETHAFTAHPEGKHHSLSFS
The experiment can be described thus: Caliper Mobility Shift Assay, kinase inhibition. Type of experiment: biochemical. As to conditions: ATP by Km value.

The target in experiment [2] is JAK1 (Homo sapiens, UniProt P23458). Briefly: Caliper Mobility Shift Assay, kinase inhibition. The format is biochemical. The following applies: ATP by Km value.
For experiment [3], the system named is phosphorylated JAK1. Briefly: CTLL-2 cells, IL-2 stimulated, Western blot of phosphorylation. The format is cell-based. The following applies: Mus musculus, starved 6 h with compound, IL-2 150 U/mL 10 min, phosphorylated JAK1 by Western blot, read-out: IC50 g (nM) JAK1. The procedure: (§1) Incubating for 10 min and collecting cells. Adding cell lysis buffer for cell lysis. Collecting protein to perform WEST-Blot detection, detecting phosphorylated JAK1, the phosphorylation of JAK2 and the phosphorylated STAT5, and obtaining the IC50 value.

Experiment [4] concerns phosphorylated STAT5. The description is as above. Type of experiment: cell-based. The following applies: Mus musculus, starved 6 h with compound, IL-2 150 U/mL 10 min, phosphorylated STAT5 by Western blot, read-out: IC50 g (nM) STAT5. The procedure:
as §1

The test system of experiment [5] is phosphorylation of JAK2. Described as above. The format is cell-based. As to conditions: Mus musculus, starved 6 h with compound, IL-2 150 U/mL 10 min, phosphorylation of JAK2 by Western blot, read-out: IC50 g (nM) JAK2. The procedure: as §1
In experiment [6] the target is JAK2 (Homo sapiens, UniProt O60674). Briefly: Caliper Mobility Shift Assay, kinase inhibition. Type of experiment: biochemical. As to conditions: ATP by Km value.
Sequence of JAK2 (O60674 whole entry, species assumed): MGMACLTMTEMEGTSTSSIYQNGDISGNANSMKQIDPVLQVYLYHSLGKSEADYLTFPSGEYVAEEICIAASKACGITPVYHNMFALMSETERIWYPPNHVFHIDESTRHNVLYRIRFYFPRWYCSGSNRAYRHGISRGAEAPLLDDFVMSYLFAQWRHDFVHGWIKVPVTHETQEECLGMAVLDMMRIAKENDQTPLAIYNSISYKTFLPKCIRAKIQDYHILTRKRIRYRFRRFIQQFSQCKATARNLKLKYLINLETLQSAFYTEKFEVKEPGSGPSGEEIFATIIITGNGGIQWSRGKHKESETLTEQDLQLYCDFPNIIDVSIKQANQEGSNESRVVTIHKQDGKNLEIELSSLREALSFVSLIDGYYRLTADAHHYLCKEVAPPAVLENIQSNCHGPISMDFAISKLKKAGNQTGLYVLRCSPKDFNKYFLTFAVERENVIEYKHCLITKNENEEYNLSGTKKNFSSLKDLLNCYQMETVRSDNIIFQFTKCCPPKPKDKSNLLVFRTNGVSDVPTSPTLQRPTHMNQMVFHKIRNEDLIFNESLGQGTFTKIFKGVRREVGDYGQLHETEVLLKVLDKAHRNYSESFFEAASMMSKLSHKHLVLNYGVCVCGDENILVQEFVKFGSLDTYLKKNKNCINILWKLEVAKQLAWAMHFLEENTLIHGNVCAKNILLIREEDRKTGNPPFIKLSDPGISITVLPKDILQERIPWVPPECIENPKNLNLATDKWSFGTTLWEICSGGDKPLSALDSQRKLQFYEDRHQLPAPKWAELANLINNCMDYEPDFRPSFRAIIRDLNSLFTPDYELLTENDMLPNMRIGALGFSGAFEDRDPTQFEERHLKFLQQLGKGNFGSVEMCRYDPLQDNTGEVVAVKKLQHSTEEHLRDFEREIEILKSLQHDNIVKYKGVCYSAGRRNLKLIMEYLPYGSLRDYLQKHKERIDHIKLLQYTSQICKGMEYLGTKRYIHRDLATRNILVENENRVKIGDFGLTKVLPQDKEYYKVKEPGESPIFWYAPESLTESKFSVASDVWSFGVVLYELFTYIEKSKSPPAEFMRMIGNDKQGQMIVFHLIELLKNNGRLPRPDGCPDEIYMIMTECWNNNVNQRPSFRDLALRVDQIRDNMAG

Sequence of JAK1 (P23458 whole entry, species assumed): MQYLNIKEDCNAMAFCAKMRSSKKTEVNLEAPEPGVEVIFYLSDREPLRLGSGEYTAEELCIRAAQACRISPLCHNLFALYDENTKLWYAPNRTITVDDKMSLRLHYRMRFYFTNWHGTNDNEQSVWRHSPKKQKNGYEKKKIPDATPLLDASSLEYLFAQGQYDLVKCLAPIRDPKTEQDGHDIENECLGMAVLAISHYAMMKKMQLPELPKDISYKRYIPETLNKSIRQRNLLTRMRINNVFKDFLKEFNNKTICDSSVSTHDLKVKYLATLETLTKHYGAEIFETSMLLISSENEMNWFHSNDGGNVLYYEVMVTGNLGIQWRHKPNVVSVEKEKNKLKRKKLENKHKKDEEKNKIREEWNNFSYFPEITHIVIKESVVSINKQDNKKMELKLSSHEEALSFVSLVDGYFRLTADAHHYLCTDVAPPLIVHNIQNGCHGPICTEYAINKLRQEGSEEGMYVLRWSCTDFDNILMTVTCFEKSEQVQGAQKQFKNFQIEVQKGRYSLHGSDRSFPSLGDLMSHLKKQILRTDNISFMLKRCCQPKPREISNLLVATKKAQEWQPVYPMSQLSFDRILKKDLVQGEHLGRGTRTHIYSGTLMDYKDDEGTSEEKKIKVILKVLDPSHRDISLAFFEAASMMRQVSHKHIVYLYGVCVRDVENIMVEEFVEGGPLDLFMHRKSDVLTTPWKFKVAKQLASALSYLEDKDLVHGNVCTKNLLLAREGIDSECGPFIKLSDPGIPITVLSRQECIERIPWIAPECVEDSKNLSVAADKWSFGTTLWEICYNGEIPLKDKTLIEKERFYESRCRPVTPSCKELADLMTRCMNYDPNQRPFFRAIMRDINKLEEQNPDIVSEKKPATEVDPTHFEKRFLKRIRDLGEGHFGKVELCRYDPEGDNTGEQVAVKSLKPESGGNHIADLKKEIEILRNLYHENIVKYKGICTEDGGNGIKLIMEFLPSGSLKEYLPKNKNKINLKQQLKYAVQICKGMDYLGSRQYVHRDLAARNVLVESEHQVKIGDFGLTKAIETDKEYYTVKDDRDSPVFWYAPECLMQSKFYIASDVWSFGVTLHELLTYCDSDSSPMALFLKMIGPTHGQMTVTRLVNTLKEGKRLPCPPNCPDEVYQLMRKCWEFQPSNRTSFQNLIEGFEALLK

`N#CCC1(n2cc(-c3ncnc4[nH]ccc34)c3ccccc32)CN(C(=O)[C@@H]2CCCN2)C1` (stereo in doubt) [Example 11, 2-(3-(3-(7H-pyrrole[2,3-d]pyrimidine-4-yl)-1H-indole-1-yl)-1-(pyrrolidine-2-carbonyl)azetidine-3-yl)acetonitrile]: the IC50 in experiment [1] stood at 521 nM; in experiment [2], 300 nM; in experiment [3], 30 nM; in experiment [4] it was 692 nM; in experiment [5], 192 nM; in experiment [6], 692 nM.

In the case of `CCS(=O)(=O)N1CC(CC#N)(n2cc(-c3ncnc4[nH]ccc34)c3ccccc32)C1` [Example 1, 2-(3-(3-(7H-pyrrole[2,3-d]pyrimidine-4-yl)-1H-indole-1-yl)-1-(ethylsulfonyl)azetidine-3-yl)acetonitrile], the IC50 in experiment [1] turned out to be 100 nM; in experiment [2], 11 nM; in experiment [3] it was 26.3 nM; in experiment [4] it was 125 nM; in experiment [5], 18.4 nM; in experiment [6], 1.1 nM.

As for `CS(=O)(=O)N1CC(CC#N)(n2cc(-c3ncnc4[nH]ccc34)c3ccccc32)C1` [Example 2, 2-(3-(3-(7H-pyrrole[2,3-d]pyrimidine-4-yl)-1H-indole-1-yl)-1-(methylsulfonyl)azetidine-3-yl)acetonitrile], the IC50 is 128 nM in experiment [1]; 8 nM in experiment [2]; 146 nM in experiment [4]; 5.4 nM in experiment [5]; 0.9 nM in experiment [6].

Take `N#CCC1(n2cc(-c3ncnc4[nH]ccc34)c3ccccc32)CN(S(=O)(=O)N2CCCC2)C1` [Example 10]: the values for the IC50 in experiment [1], in experiment [2] and in experiment [6] were 67 nM, 7 nM and 3.5 nM, respectively.

For the compound `CCS(=O)(=O)N1CC(CC#N)(n2cc(-c3ncnc4[nH]ccc34)c3ccc(Cl)cc32)C1` [Example 26, 2-(1-(ethylsulfonyl)-3-(6-chloro-3-(7H-pyrrole[2,3-d]pyrimidine-4-yl)-1H-indole-1-yl)azetidine-3-yl)acetonitrile], the 50% inhibitory concentration (IC50) in experiment [1] amounted to 34 nM; in experiment [2] it was 3.5 nM; in experiment [6] it was 0.72 nM.

Consider `CC(C)S(=O)(=O)N1CC(CC#N)(n2cc(-c3ncnc4[nH]ccc34)c3ccc(Cl)cc32)C1` [Example 28, 2-(1-(isopropylsulfonyl)-3-(6-chloro-3-(7H-pyrrole[2,3-d]pyrimidine-4-yl)-1H-indole-1-yl)azetidine-3-yl)acetonitrile], for which the concentration for half-maximal inhibition (IC50) came to 64 nM in experiment [1], 6.5 nM in experiment [2] and 2.4 nM in experiment [6].

For `CCS(=O)(=O)N1CC(CC#N)(n2cc(-c3ncnc4[nH]ccc34)c3ccc(Br)cc32)C1` [Example 31, 2-(1-(ethylsulfonyl)-3-(6-bromo-3-(7H-pyrrole[2,3-d]pyrimidine-4-yl)-1H-indole-1-yl)azetidine-3-yl)acetonitrile], the values for the IC50 in experiment [1], in experiment [2] and in experiment [6] were 21 nM, 3.5 nM and 8.3 nM, respectively.

In the case of `CS(=O)(=O)N1CC(CC#N)(n2cc(-c3ncnc4[nH]ccc34)c3ccc(F)c(F)c32)C1` [Example 32, 2-(1-(methylsulfonyl)-3-(5,6-difluoro-3-(7H-pyrrole[2,3-d]pyrimidine-4-yl)-1H-indole-1-yl)azetidine-3-yl)acetonitrile], the IC50 in experiment [1] is 124 nM; in experiment [2], 4.5 nM; in experiment [6] it was 6.3 nM.

As for `CCCS(=O)(=O)N1CC(CC#N)(n2cc(-c3ncnc4[nH]ccc34)c3c(F)cc(F)cc32)C1` [Example 43, 2-(1-(propylsulfonyl)-3-(6,8-difluoro-3-(7H-pyrrole[2,3-d]pyrimidine-4-yl)-1H-indole-1-yl)azetidine-3-yl)acetonitrile], the IC50 was 67 nM in experiment [1], 13.3 nM in experiment [2] and 28.4 nM in experiment [6].

`CCS(=O)(=O)N1CC(CC#N)(n2cc(-c3ncnc4[nH]ccc34)c3cc(F)cc(F)c32)C1` [Example 47, 2-(1-(ethylsulfonyl)-3-(5,7-difluoro-3-(7H-pyrrole[2,3-d]pyrimidine-4-yl)-1H-indole-1-yl)azetidine-3-yl)acetonitrile]: the 50% inhibitory concentration (IC50) in experiment [1] was determined as 58 nM; in experiment [2] it was 30.5 nM; in experiment [6], 11.6 nM.

Consider `CCS(=O)(=O)N1CC(CC#N)(n2cc(-c3ncnc4[nH]ccc34)c3c(F)ccc(F)c32)C1` [Example 48, 2-(1-(ethylsulfonyl)-3-(5,8-difluoro-3-(7H-pyrrole[2,3-d]pyrimidine-4-yl)-1H-indole-1-yl)azetidine-3-yl)acetonitrile], for which the half-inhibitory concentration (IC50) turned out to be 72 nM in experiment [1], 10.5 nM in experiment [2] and 4.6 nM in experiment [6].

Regarding `CCS(=O)(=O)N1CC(CC#N)(n2cc(-c3ncnc4[nH]ccc34)c3ccc(CC#N)cc32)C1` [Example 51, 2-(1-(ethylsulfonyl)-3-(6-ethylcyano-3-(7H-pyrrole[2,3-d]pyrimidine-4-yl)-1H-indole-1-yl)azetidine-3-yl)acetonitrile], the IC50 in experiment [1] came to 172 nM; in experiment [2] it was 45.5 nM; in experiment [6], 41.6 nM.

In the case of `CCS(=O)(=O)N1CC(CC#N)(n2cc(-c3ncnc4[nH]ccc34)c3ccc(CC(F)(F)F)cc32)C1` [Example 53, 2-(1-(ethylsulfonyl)-3-(6-trifluoroethyl-3-(7H-pyrrole[2,3-d]pyrimidine-4-yl)-1H-indole-1-yl)azetidine-3-yl)acetonitrile], the IC50 in experiment [1] was 17 nM; in experiment [2], 5.4 nM; in experiment [6], 1.4 nM.

For the compound `CCS(=O)(=O)N1CC(CC#N)(n2cc(-c3ncnc4[nH]ccc34)c3ccc(C)cc32)C1` [Example 54, 2-(1-(ethylsulfonyl)-3-(6-methyl-3-(7H-pyrrole[2,3-d]pyrimidine-4-yl)-1H-indole-1-yl)azetidine-3-yl)acetonitrile], the IC50 in experiment [1] is 36 nM; in experiment [2] it was 15.2 nM; in experiment [6], 2.5 nM.

Take `CCOc1ccc2c(-c3ncnc4[nH]ccc34)cn(C3(CC#N)CN(S(=O)(=O)CC)C3)c2c1` [Example 59, 2-(1-(ethylsulfonyl)-3-(6-ethoxyl-3-(7H-pyrrole[2,3-d]pyrimidine-4-yl)-1H-indole-1-yl)azetidine-3-yl)acetonitrile]: the IC50 in experiment [1] is 90 nM; in experiment [2], 25.4 nM; in experiment [6], 2.8 nM.

As for `CCS(=O)(=O)N1CC(CC#N)(n2cc(-c3ncnc4[nH]ccc34)c3cc(F)ccc32)C1` [Example 62, 2-(1-(ethylsulfonyl)-3-(5-fluoro-3-(7H-pyrrole[2,3-d]pyrimidine-4-yl)-1H-indole-1-yl)azetidine-3-yl)acetonitrile], the IC50 in experiment [1] is 30 nM; in experiment [2] it was 3.6 nM; in experiment [3], 33.9 nM; in experiment [4] it was 130 nM; in experiment [5], 29.9 nM; in experiment [6] it was 1 nM.

For `CCS(=O)(=O)N1CC(CC#N)(n2cc(-c3ncnc4[nH]ccc34)c3cc(C(F)(F)F)ccc32)C1` [Example 63, 2-(1-(ethylsulfonyl)-3-(5-trifluoromethyl-3-(7H-pyrrole[2,3-d]pyrimidine-4-yl)-1H-indole-1-yl)azetidine-3-yl)acetonitrile], the IC50 in experiment [1] was determined as 232 nM; in experiment [2], 7.9 nM; in experiment [3], 75.2 nM; in experiment [4], 196 nM; in experiment [5] it was 38.3 nM; in experiment [6], 2.4 nM.

For the origin of these results see patent publication US10385056B2, “4-substituted pyrrolo[2,3-d]pyrimidine compound and use thereof” (JIANGSU CAREFREE PHARMACEUTICAL CO., LTD, priority 2014, dated 2019).
